Literature values in US20230172920A1, “DOSING REGIMEN FOR TREATING A DISEASE MODULATED BY CSF-1R” (Novartis AG, priority 2020, published 2023).
Like-named read-outs stand apart in the source and are kept apart here.

Legend:
[1] = Phase 2b/3 clinical trial; cited from earlier work
[2] = cited from earlier work

| Molecule | serum enzyme increases in clinical trials ([2]; human, in vivo) | further results |
| --- | --- | --- |
| Cc1ccc(NC(=O)c2ccc(CN3CCN(C)CC3)cc2)cc1Nc1nc(-c2cccnc2)cs1 [masitinib] | – | disease progression in patients with ALS [1]: significant delay of disease progression |
| FC(F)(F)c1ccc(CNc2ccc(Cc3c[nH]c4ncc(Cl)cc34)cn2)cn1 [PLX3397, reference compound] | – | serum enzyme increases in clinical trials ([2]; literature reports): Asymptomatic serum enzyme increases |
| FPA008: monoclonal antibody against CSF-1R | Asymptomatic serum enzyme increases | – |
| MCS110: monoclonal antibody against CSF-1 ligand (antibody, chains of the INN, looked up, V domains shown) VH: QVQLQESGPGLVKPSQTLSLTCTVSDYSITSDYAWNWIRQFPGKGLEWMGYISYSGSTSYNPSLKSRITISRDTSKNQFSLQLNSVTAADTAVYYCASFDYAHAMDYWGQGTTVTVSS VL: DIVLTQSPAFLSVTPGEKVTFTCQASQSIGTSIHWYQQKTDQAPKLLIKYASESISGIPSRFSGSGSGTDFTLTISSVEAEDAADYYCQQINSWPTTFGGGTKLEIK | Asymptomatic serum enzyme increases | – |
